Drawing on patent US20070244155A1 (AMGEN INC., priority 2006, published 2007), this text covers EC50 for 16 compounds.

This assay has as its target T1, human GPR40 (Homo sapiens, UniProt O14842).
T1 construct: expressed in transfected cells; host or cells: CHO cells
In words: Cell-based aequorin assay using human GPR40. To be noted: CHO cells transfected with GPR40 and aequorin expression vectors; aequorin luminescence; activation of human GPR40; read-out: Relative EC50. The procedure: A cell-based aequorin assay may be employed to characterize the modulatory activity of compounds on the GPR40 signaling pathway. In an exemplary assay, CHO cells are transfected in a 15 cm plated containing 14 million cells with 5 μg of GPR40 expression vector and 5 μg of Aequorin expression vector (Euroscreen) using Lipofectamine 2000 (Invitrogen). After 17-24 hours post-transfection, cells are washed with phosphate buffered saline (PBS) and detached from the tissue culture dish with 2 mL of trypsin (0.25%(w/v)). Trypsinization is halted with 28 mL of Hanks Buffered Salt Solution containing 20 mM Hepes (H/HBSS) and 0.01% fatty acid-free bovine serum albumin (BSA) or 0.625% fatty acid-free human serum albumin (HSA). Coelantrazine is added to 1 ug/mL and the cells are incubated for 2 hours at room temperature. Cells are gently mixed every 15 minutes. Compounds are dissolved in dimethyl sulfoxide for preparation of 10 mM stock solutions. Compounds are diluted in H/HBSS containing either 0.01% BSA or 0.625% HSA. Serial dilutions of the test compounds are prepared to determine dose response. Aequorin luminescence measurements are made using an EG&G Berthold 96-well luminometer and the response is measured over a 20 second interval after cells and compounds are mixed. The area-under-curve from 2-20 seconds is plotted to determine dose response. The EC50 (effective concentration to reach 50% maximal response) is determined from the dose response plot. Table 1 includes representative data (EC50 values) obtained for exemplary compounds of the invention for the relative activation of human GPR40. […] Therefore, in some embodiments, the invention provides any of the compounds listed in Table 1 individually or as members of a group and pharmaceutically acceptable salts, esters, solvates, tautomers, stereoisomers, and/or prodrugs thereof.

A word on the EC50: it is the concentration that produces a half-maximal response.

SMILES strings stand for the structures.

T1 sequence (O14842 whole entry): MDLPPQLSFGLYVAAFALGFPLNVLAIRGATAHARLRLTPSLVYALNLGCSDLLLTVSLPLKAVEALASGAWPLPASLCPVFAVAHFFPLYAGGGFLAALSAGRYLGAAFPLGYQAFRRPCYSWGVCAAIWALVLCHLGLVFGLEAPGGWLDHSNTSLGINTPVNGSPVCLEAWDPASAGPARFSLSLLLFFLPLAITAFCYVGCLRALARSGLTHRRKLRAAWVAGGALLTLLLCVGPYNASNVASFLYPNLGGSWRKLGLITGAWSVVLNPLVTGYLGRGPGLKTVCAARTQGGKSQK

With `O=C(O)CC1COCc2cc(OCc3cccc(-c4ccc(C(F)(F)F)cc4)c3)ccc21` (stereo not shown) [Example 42, 2-(7-(3-(4-Trifluoromethylphenyl)benzyloxy)-3,4-dihydro-1H-isochromen-4-yl)acetic acid], the EC50 is 0.1 to 1 µM.

As for `O=C(O)Cn1ccc2cc(OCc3cccc(-c4ccc(C(F)(F)F)cc4)c3)ccc21` [Example 52], the EC50 is 1 to 10 µM.

`O=C(O)CCn1ccc2cc(OCc3cccc(-c4ccc(C(F)(F)F)cc4)c3)ccc21` [Example 51]: the EC50 lay within 1 to 10 µM.

On to `CCOc1ccccc1-c1ccc(COc2ccc3c(c2)CC(C)C3CC(=O)O)cc1` (mixture of isomers) [Example 27], for which the EC50 lay within 1 to 10 µM.

For the compound `Cc1ccc(-c2nc(C)c(COc3ccc4c(c3)CCCC4CC(=O)O)s2)cc1` (stereo not shown) [Example 10], the EC50 was in the range of 0.1 to 1 µM.

Turning to `CCCCOc1ccc(C)cc1-c1ccc(COc2ccc3c(c2)CC(C)C3CC(=O)O)cc1` (mixture of isomers) [Example 25], the EC50 is 1 to 10 µM.

Consider `CN1C(=O)c2cc(OCc3cccc(-c4ccc(C(F)(F)F)cc4)c3)ccc2C1CC(=O)O` (racemic) [Example 70, (R/S)-(2-methyl-3-oxo-5-(((4′-(trifluoromethyl)-1,1′-biphenyl-3-yl)methyl)oxy)-2,3-dihydro-1H-isoindol-1-yl)acetic acid], for which the EC50 was 1 to 10 µM.

Regarding `Cc1nc(-c2ccc(C(F)(F)F)cc2)sc1COc1ccc2c(c1)CCC[C@@H]2CC(=O)O` [Example 56], the concentration giving a half-maximal response (EC50) lay within 0.1 to 1 µM.

`COc1ccc(COc2ccc3c(c2)CCCC3CC(=O)O)cc1` (stereo not shown) [Example 9]: the EC50 is 1 to 10 µM.

Turning to `Cc1ccccc1/C=C/c1ccc2c(c1)CCCC2CC(=O)O` (stereo not shown) [Example 46, [6-((E)-2-o-Tolyl-vinyl)-1,2,3,4-tetrahydro-naphthalen-1-yl]-acetic acid], the 50% effective concentration (EC50) lay in the range of 1 to 10 µM.

As for `Cc1cc(Cl)ccc1-c1cccc(COc2ccc3c(c2)C(=O)NC3CC(=O)O)c1` (racemic) [Example 66, (R/S)-(5-(((4′-chloro-2′-methyl-1,1′-biphenyl-3-yl)methyl)oxy)-3-oxo-2,3-dihydro-1H-isoindol-1-yl)acetic acid], the EC50 was in the range of 1 to 10 µM.

Consider `Cc1cc(Cl)ccc1-c1cccc(COc2ccc3c(c2)C(=O)N(C)C3CC(=O)O)c1` (racemic) [Example 67, (R/S)-(5-(((4′-chloro-2′-methyl-1,1′-biphenyl-3-yl)methyl)oxy)-2-methyl-3-oxo-2,3-dihydro-1H-isoindol-1-yl)acetic acid], for which the EC50 lay in the range of 0.1 to 1 µM.

With `CCCCOc1ccc(C)cc1-c1ccc(COc2ccc3c(c2)OCC(=C(C)C)C3CC(=O)O)cc1` (racemic) [Example 39], the EC50 lay in the range of 0.1 to 1 µM.

Take `CCCCOc1ccc(C)cc1-c1ccc(COc2ccc3c(c2)CC(CC(=O)O)CC3)cc1` (stereo not shown) [Example 21]: the EC50 lay in the range of 1 to 10 µM.

Turning to `O=C(O)CC1CCc2ccc(OCc3cccc(-c4ccc(C(F)(F)F)cc4)c3)cc2C1` (stereo not shown) [Example 20], the EC50 was in the range of 1 to 10 µM.

As for `Cc1cc(Cl)ccc1-c1cccc(COc2ccc3c(c2)CCC[C@@H]3CC(=O)O)c1` [Example 55], the EC50 is 0.1 to 1 µM.
